In the Kinase Knowledgebase extract (Sharma et al. 2016):

Key:
[1] = biological target: EGFR (human), P00533 [WT]; settings: hl-7702
EGFR (human) = EGFR (human) (UniProt P00533); settings: a431
[2] = biological target: EGFR (human), P00533 [Inhibition of Proliferation of EGFR(WT, k-Ras mutation) in A549 Cells]
[3] = biological target: EGFR (Human), P00533 [T790M/L858R]; settings: h1975
Sequence of EGFR (Human), P00533 [T790M/L858R] (P00533 whole entry T790M/L858R, looked up): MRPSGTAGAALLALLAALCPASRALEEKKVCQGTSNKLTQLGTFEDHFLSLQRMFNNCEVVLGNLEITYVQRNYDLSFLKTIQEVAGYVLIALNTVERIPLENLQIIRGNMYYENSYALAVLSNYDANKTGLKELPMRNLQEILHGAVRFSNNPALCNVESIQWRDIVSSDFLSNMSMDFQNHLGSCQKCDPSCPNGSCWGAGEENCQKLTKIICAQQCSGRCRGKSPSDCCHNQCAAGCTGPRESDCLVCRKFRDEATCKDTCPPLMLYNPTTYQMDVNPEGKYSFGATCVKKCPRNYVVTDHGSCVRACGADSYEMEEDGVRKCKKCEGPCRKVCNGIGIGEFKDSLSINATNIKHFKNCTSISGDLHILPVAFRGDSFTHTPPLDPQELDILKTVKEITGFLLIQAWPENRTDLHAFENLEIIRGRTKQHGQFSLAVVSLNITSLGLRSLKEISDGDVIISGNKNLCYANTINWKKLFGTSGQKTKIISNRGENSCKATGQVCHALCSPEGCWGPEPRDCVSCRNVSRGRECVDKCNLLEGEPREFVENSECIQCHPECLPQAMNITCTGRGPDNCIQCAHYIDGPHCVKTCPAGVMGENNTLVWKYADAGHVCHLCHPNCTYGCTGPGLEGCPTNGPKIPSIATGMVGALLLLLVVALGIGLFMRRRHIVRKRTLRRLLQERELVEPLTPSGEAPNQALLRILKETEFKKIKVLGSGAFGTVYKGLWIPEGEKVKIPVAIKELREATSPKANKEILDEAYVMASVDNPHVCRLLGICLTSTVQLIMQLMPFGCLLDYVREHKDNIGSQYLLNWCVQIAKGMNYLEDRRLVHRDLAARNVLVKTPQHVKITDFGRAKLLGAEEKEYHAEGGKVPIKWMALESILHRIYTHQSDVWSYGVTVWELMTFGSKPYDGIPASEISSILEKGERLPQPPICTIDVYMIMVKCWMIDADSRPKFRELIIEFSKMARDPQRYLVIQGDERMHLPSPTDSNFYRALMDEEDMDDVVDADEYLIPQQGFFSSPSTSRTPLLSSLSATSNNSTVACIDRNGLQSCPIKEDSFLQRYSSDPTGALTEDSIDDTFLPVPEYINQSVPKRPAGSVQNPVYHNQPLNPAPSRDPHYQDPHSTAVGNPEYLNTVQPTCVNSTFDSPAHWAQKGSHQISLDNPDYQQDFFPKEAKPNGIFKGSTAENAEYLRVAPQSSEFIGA

Sequence of EGFR (human), P00533 [Inhibition of Proliferation of EGFR(WT, k-Ras mutation) in A549 Cells] (P00533 whole entry, looked up, stated change not applied): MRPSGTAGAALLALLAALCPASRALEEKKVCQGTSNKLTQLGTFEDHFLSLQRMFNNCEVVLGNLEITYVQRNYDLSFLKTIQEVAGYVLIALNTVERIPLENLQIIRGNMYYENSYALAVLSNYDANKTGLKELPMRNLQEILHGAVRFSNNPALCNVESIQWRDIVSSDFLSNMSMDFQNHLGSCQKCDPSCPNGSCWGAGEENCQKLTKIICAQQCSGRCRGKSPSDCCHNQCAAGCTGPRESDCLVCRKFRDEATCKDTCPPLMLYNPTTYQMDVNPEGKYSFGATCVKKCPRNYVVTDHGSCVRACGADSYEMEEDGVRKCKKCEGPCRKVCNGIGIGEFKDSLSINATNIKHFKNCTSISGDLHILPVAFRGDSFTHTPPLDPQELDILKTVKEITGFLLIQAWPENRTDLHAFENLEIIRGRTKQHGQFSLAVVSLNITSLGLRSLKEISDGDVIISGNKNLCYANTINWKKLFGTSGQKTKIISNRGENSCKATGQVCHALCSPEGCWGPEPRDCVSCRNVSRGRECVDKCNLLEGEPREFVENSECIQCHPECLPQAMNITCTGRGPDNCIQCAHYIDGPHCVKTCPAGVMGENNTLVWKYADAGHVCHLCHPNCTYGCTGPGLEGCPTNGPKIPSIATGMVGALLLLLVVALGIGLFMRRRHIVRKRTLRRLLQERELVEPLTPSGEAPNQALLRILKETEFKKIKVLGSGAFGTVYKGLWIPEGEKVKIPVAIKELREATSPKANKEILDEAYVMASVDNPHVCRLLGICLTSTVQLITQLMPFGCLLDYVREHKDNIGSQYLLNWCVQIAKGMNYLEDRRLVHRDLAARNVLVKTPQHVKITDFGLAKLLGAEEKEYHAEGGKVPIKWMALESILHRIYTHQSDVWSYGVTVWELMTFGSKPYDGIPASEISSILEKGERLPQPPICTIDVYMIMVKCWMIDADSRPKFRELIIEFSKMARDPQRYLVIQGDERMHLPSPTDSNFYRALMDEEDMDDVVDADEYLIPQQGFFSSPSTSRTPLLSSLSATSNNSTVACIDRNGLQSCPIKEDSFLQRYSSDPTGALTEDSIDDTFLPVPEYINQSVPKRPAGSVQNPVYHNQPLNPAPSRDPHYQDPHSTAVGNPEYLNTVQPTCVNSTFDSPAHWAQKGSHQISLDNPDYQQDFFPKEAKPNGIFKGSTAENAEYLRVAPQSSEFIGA
Sequence of EGFR (human), P00533 [WT] (P00533 whole entry, looked up): as the sequence (P00533 whole entry, looked up, stated change not applied) above
Sequence of EGFR (human) (P00533 whole entry, looked up): as the sequence (P00533 whole entry, looked up, stated change not applied) above

IC50 [1] [µM]	IC50 (EGFR (human)) [µM]	IC50 [2] [µM]	IC50 [3] [µM]	SMILES
> 10	–	–	–	C=CC(=O)Nc1cccc(N2C(=O)N(C)Cc3cnc(Nc4ccccc4)nc32)c1
> 10	> 10	–	–	C=CC(=O)Nc1cccc(N2C(=O)N(C)Cc3cnc(Nc4ccc(N5CCOCC5)cc4OC)nc32)c1
> 10	–	–	–	C=CC(=O)Nc1cccc(N2C(=O)N(C)Cc3cnc(Nc4ccc(N5CCN(C)CC5)cc4C)nc32)c1
> 10	–	> 20	–	C=CC(=O)Nc1cccc(N2C(=O)N(C)Cc3cnc(Nc4ccc(N5CCCN(C)CC5)cc4OC)nc32)c1
–	> 10	–	–	C=CC(=O)Nc1cccc(N2C(=O)N(C)Cc3cnc(Nc4ccc(N5CCN(C)CC5)cc4F)nc32)c1
> 10	–	–	–	C=CC(=O)Nc1cccc(N2C(=O)N(C)Cc3cnc(Nc4ccc(N5CCCCC5)cc4OC)nc32)c1
> 10	–	–	–	C=CC(=O)Nc1cccc(N2C(=O)N(C)Cc3cnc(Nc4ccc(N5CCN(C)CC5)cc4OC)nc32)c1
> 10	> 10	> 20	–	C=CC(=O)Nc1cccc(N2C(=O)N(C)Cc3cnc(NC)nc32)c1
> 10	–	–	–	C=CC(=O)Nc1cccc(N2C(=O)N(C(C)C)Cc3cnc(Nc4ccc(N5CCN(C)CC5)cc4OC)nc32)c1
> 10	–	–	–	C=CC(=O)Nc1cccc(N2C(=O)N(c3ccc(Oc4ccccc4)cc3)Cc3cnc(Nc4ccc(N5CCN(C)CC5)cc4OC)nc32)c1
> 10	–	> 20	–	C=CC(=O)Nc1cccc(N2C(=O)N(C)Cc3cnc(Nc4ccc(N(C)C)cc4OC)nc32)c1
> 10	> 10	> 30	> 20	CCC(=O)Nc1cccc(N2C(=O)N(C)Cc3cnc(Nc4ccc(N5CCN(C)CC5)cc4OC)nc32)c1
> 10	–	–	–	C=CC(=O)Nc1cccc(N2C(=O)N(C)Cc3cnc(Nc4ccc(N5CCN(C)CC5)cc4OC(C)C)nc32)c1
> 10	> 10	–	> 20	COc1cc(N2CCN(C)CC2)ccc1Nc1ncc2c(n1)N(c1cccc(N)c1)C(=O)N(C)C2
> 10	–	–	–	C=CC(=O)Nc1cccc(N2C(=O)N(C)Cc3cnc(Nc4ccc(N5CCN(C)CC5)cc4OCC)nc32)c1
> 10	–	–	–	C=CC(=O)Nc1cccc(N2C(=O)N(C)Cc3cnc(Nc4ccc(N5CCC(N(C)C)CC5)cc4OC)nc32)c1
